In BindingDB's records for doi:10.3109/14756360903389872 (Medical University, 2010) one finds IC50 data, which are given here for five compounds.

The term IC50 denotes the midpoint of a concentration-inhibition curve. A high value points to weaker potency.

Common to all, as to experiment: Antiamidolytic Assay
The target of assay [1] is Plasminogen (Homo sapiens, UniProt P00747). The method, then:
(§1) Quantities of 0.2 mL of examined preparation (as control, 0.15 M NaCl), buffer, and 0.1 mL of enzyme solution were mixed together. The mixture was incubated at 37°C for 3 min then the synthetic substrate solution in the same buffer was added. After 20 min of incubation, the reaction was stopped by adding 0.1 mL of 50% acetic acid, and the absorbance of the released p-nitroaniline was measured at 405 nm.

Assay [2] has as its target Urokinase-type plasminogen activator (Homo sapiens, UniProt P00749). How it is done: as §1
The target of assay [3] is Serine protease 1 (Homo sapiens, UniProt P07477). How it is done: as §1
Chain of Serine protease 1 (P07477 whole entry): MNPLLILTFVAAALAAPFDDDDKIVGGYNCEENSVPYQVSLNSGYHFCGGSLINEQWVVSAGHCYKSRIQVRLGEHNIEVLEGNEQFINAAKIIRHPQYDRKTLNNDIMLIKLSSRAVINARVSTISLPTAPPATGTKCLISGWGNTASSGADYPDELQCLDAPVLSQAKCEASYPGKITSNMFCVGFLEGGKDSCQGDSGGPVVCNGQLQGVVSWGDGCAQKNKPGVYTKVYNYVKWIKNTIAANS

Chain of Plasminogen (P00747 97-580 limits assumed): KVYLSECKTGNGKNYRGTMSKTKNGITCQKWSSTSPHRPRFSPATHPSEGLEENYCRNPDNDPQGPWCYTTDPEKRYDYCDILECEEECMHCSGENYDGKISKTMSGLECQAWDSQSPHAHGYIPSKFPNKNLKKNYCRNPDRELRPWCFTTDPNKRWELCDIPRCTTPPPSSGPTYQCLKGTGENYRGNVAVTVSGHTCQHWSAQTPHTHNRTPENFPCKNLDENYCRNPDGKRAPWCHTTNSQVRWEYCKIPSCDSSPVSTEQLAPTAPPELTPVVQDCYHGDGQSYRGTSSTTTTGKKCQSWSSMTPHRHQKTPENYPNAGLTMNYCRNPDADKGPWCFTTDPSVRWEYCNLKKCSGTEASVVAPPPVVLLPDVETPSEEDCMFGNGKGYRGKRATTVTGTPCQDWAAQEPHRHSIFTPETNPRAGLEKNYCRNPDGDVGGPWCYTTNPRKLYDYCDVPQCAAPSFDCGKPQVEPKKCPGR
Chain of Plasminogen (P00747 581-810 limits assumed): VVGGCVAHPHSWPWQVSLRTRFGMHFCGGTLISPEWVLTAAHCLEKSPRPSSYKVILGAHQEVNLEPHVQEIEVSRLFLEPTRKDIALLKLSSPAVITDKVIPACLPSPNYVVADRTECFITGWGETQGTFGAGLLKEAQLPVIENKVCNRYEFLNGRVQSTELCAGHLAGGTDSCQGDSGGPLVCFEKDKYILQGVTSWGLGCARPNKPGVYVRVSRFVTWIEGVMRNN

In assay [1], `Nc1cccc(C(=O)Nc2cccc(C(=O)NCCCNC(=O)c3cccc(NC(=O)c4cccc(N)c4)c3)c2)c1` [Carbocyclic minor groove binder, 4] displayed an IC50 of 20 µM.

Regarding `Cn1cc(NC(=O)c2cc(NC(=O)CN=C(N)N)cn2C)cc1C(=O)NCCC(=N)N`, the IC50 is 30 µM in assay [2] and 40 µM in assay [1].

In the case of `Nc1cccc(C(=O)Nc2cccc(C(=O)NCCCCCNC(=O)c3cccc(NC(=O)c4cccc(N)c4)c3)c2)c1` [Carbocyclic minor groove binder, 6], the IC50 in assay [3] was 20 µM; in assay [2], 14 µM; in assay [1], 10 µM.

Consider `Nc1cccc(C(=O)Nc2cccc(C(=O)NCCCCNC(=O)c3cccc(NC(=O)c4cccc(N)c4)c3)c2)c1` [Carbocyclic minor groove binder, 5], for which the results for the IC50 in assay [2] and in assay [1] were 10 µM and 20 µM, respectively.

On to `N=C(N)c1ccc(OCCCCCOc2ccc(C(=N)N)cc2)cc1` [4-[5-(4-carbamimidoylphenoxy)pentoxy]benzenecarboximidamide;2-oxidanylethanesulfonic acid], for which the IC50 in assay [3] was 100 µM; in assay [2], 20 µM; in assay [1], below 10 µM.
